Measurements from article PMC10518257 (Nature Cancer, 2023).
Values joined by “and” are separate entries in the source; they are usually repeats but may differ in a detail not shown here. Identical values can stand only once. Like-named read-outs stand apart in the source and are kept apart here.

Tests used:
TT cells = experiment: Growth inhibition (alamarBlue, 96 h); assay type: cell-based, human; conditions: for raw viability signal (Source Data Fig. 3b-c): replicate sets
Ba/F3 cells = experiment: Growth inhibition assay in Ba/F3 cells (CellTiter-Glo, 72 h); assay type: cell-based
LUAD-0057BS1 cells = experiment: Growth inhibition (alamarBlue, 96 h); assay type: cell-based, human; conditions: for raw viability signal (Source Data Fig. 3b-c): LUAD-0057BS1, replicate sets
Ba/F3-RET^M918T = experiment: Growth inhibition assay in Ba/F3 cells (CellTiter-Glo, 72 h); assay type: cell-based; conditions: Mus musculus, BaF3, 72 h, Ba/F3-RET^M918T, CellTiter-Glo, 72 h; read-out: GI50 value (Mean ± SD)
LC-2/ad cells = experiment: Growth inhibition (alamarBlue, 96 h); assay type: cell-based, human; conditions: for raw viability signal (Source Data Fig. 3b-c): LC-2/Ad, replicate sets
ECLC5B cells = experiment: Growth inhibition (alamarBlue, 96 h); assay type: cell-based, human; conditions: ECLC5B; for raw viability signal (Source Data Fig. 3b-c): replicates
LUAD-0087AS2 cells = experiment: Growth inhibition (alamarBlue, 96 h); assay type: cell-based, human; conditions: for raw viability signal (Source Data Fig. 3b-c): LUAD-0087AS2, replicate sets
[1] = Homo sapiens, read-out: IC50 for Inhibition of Growth (95% CI), alamarBlue, 96 h

In the case of `COc1cc2c(Nc3ccc(Br)cc3F)ncnc2cc1OCC1CCN(C)CC1` [Vandetanib], the “raw viability signal (Source Data Fig. 3b-c)” value (shortened to “raw viability signal”) (TT cells; 0.01 nM) is reported as 24130.4 and 28596.3 and 33849.7 and 15452.6, the “raw viability signal” value (TT cells; 0.1 nM) is reported as 23355.5 and 28594.1 and 36565.2 and the “raw viability signal” value (TT cells; 1 nM) is reported as 22374.7 and 27607.6 and 35010.1 and 13701.7. The “raw viability signal” value (TT cells; 10 nM) was 16858.1 and 26132.6 and 31759.9 and 13240.5 and 11997.4, the “raw viability signal” value (TT cells; 100 nM) was 9840.2 and 25256.2 and 32238.5 and 11048.8 and 6020.05 and the “raw viability signal” value (TT cells; 1000 nM) was 9436.58 and 12629.1 and 19662.7 and 4747.88 and 2242.82. The “raw viability signal” value (TT cells; 10000 nM) was 6954.01 and 10117.3 and 4217.75 and 1470.42, the IC50 (TT cells; [1]) was 90 nM and the GI50 (Ba/F3 cells; Ba/F3 (parental), replicate Sets 1-3, read-out: GI50) was 7330 nM and 9120 nM. It also gave a GI50 (Ba/F3 cells; Mus musculus, BaF3, 72 h, Ba/F3, CellTiter-Glo, 72 h, read-out: GI50 value (Mean ± SD)) of 7490 nM, a GI50 (Ba/F3 cells; Mus musculus, BaF3, Ba/F3 (parental), replicate Sets 1-3, read-out: GI50) of 6020 nM and an IC50 (LUAD-0057BS1 cells; Homo sapiens, read-out: IC50 for Inhibition of Growth (95% CI), LUAD-0057BS1, alamarBlue, 96 h) of 363 nM. The “raw viability signal” value (LUAD-0057BS1 cells; 0.01 nM) was 17034.2 and 23597.8, the “raw viability signal” value (LUAD-0057BS1 cells; 0.1 nM) was 16283.3 and 21948.2 and the “raw viability signal” value (LUAD-0057BS1 cells; 1 nM) was 16965.6 and 22300.3. The “raw viability signal” value (LUAD-0057BS1 cells; 10 nM) was 14389.1 and 16776.9 and 22078.9, the “raw viability signal” value (LUAD-0057BS1 cells; 100 nM) was 13528.1 and 13127 and 19841.4 and the “raw viability signal” value (LUAD-0057BS1 cells; 1000 nM) was 5066.49 and 6132.7 and 5277.44. The “raw viability signal” value (LUAD-0057BS1 cells; 10000 nM) was 837.183 and 963.777 and 796.086, the GI50 (Ba/F3-RET^M918T) was 39.9 ± 15.2 nM and the IC50 (LC-2/ad cells; Homo sapiens, read-out: IC50 for Inhibition of Growth (95% CI), LC-2/ad, alamarBlue, 96 h) was 61 nM. The “raw viability signal” value (LC-2/ad cells; 0.01 nM) was 12607.4 and 20233.4, the “raw viability signal” value (LC-2/ad cells; 0.1 nM) was 13108.5 and 20488.5 and the “raw viability signal” value (LC-2/ad cells; 1 nM) was 11956.2 and 19814.6. For the same molecule, the “raw viability signal” value (LC-2/ad cells; 10 nM) was 11578.8 and 17158.6, the “raw viability signal” value (LC-2/ad cells; 100 nM) was 4528.4 and 9691.17 and the “raw viability signal” value (LC-2/ad cells; 1000 nM) was 1439.52 and 1771.38. The “raw viability signal” value (LC-2/ad cells; 10000 nM) was 850.396, the “raw viability signal” value (ECLC5B cells; 0.01 nM) was 9731.41 and 6613.39 and 26019.7 and the “raw viability signal” value (ECLC5B cells; 0.1 nM) was 10719.9 and 7303.21 and 26332.1. For the same molecule, the “raw viability signal” value (ECLC5B cells; 1 nM) was 7568.32 and 25576, the “raw viability signal” value (ECLC5B cells; 10 nM) was 10376.5 and 7240.47 and 24146.6 and the “raw viability signal” value (ECLC5B cells; 100 nM) was 8370.2 and 5534.52 and 20059.6. The “raw viability signal” value (ECLC5B cells; 1000 nM) was 1326.74 and 1175.68 and 3727.83, the “raw viability signal” value (ECLC5B cells; 10000 nM) was 1185.45 and 1144.21 and 2595.71 and the IC50 (ECLC5B cells; [1]) was 248 nM. The IC50 (LUAD-0087AS2 cells; Homo sapiens, read-out: IC50 for Inhibition of Growth (95% CI), LUAD-0087AS2, alamarBlue, 96 h) was 264 nM, the “raw viability signal” value (LUAD-0087AS2 cells; 0.01 nM) was 12332.1 and 13934.5 and 13930.1 and the “raw viability signal” value (LUAD-0087AS2 cells; 0.1 nM) was 10316.9 and 14234.5 and 13979.9. For the same molecule, the “raw viability signal” value (LUAD-0087AS2 cells; 1 nM) was 14707.2 and 14551.9 and 13357, the “raw viability signal” value (LUAD-0087AS2 cells; 10 nM) was 9639.26 and 14042.7 and the “raw viability signal” value (LUAD-0087AS2 cells; 100 nM) was 8268.62 and 14329.9 and 11925.1. For the same molecule, the “raw viability signal” value (LUAD-0087AS2 cells; 1000 nM) was 3107.74 and 4188.25 and 2159.6 and 1975.84 and the “raw viability signal” value (LUAD-0087AS2 cells; 10000 nM) was 1739.1 and 865.962 and 878.418 and 892.669.
